Results: ChEMBL document CHEMBL2203128, “Antibacterial activity of substituted 5-methylbenzo[c]phenanthridinium derivatives” (2012)
Converted amounts (≈) assume the structure as drawn.

Key:
Type in all cases: functional
Enterococcus faecalis [1] = experiment: Antimicrobial activity against vancomycin-sensitive Enterococcus faecalis ATCC 19433 by CLSI protocol based broth microdilution method
Enterococcus faecalis [2] = experiment: Antimicrobial activity against vancomycin-resistant Enterococcus faecalis ATCC 51575 by CLSI protocol based broth microdilution method
Staphylococcus aureus [3] = experiment: Antimicrobial activity against methicillin-sensitive Staphylococcus aureus 8325-4 by CLSI protocol based broth microdilution method
Staphylococcus aureus [4] = experiment: Antimicrobial activity against methicillin-resistant Staphylococcus aureus ATCC 33591 by CLSI protocol based broth microdilution method

Row | Compound | MIC (Enterococcus faecalis [1]) | MIC (Enterococcus faecalis [2]) | MIC (Staphylococcus aureus [3]) | MIC (Staphylococcus aureus [4])
1 | COc1cc2c(ccc3c4ccc(OC)c(OC)c4c[n+](C)c23)c(-c2cccnc2)c1OC.[Cl-] | 32 µg/mL | 32 µg/mL | 8 µg/mL | 32 µg/mL
2 | COc1cc2c(ccc3c4ccc(OC)c(OC)c4c[n+](C)c23)c(-c2ccoc2)c1OC.[Cl-] | 16 µg/mL | 16 µg/mL | 1 µg/mL | 1 µg/mL
3 | COc1cc2c(ccc3c4ccc(OC)c(OC)c4c[n+](C)c23)c(-c2ccc(N(C)C)cc2)c1OC.[Cl-] | 8 µg/mL | 8 µg/mL | 1 µg/mL | 1 µg/mL
4 | COc1cc(-c2c(OC)c(OC)cc3c2ccc2c4ccc(OC)c(OC)c4c[n+](C)c32)cc(OC)c1OC.[Cl-] | 32 µg/mL | 32 µg/mL | 4 µg/mL | 4 µg/mL
5 | COc1cc2c(ccc3c4ccc(OC)c(OC)c4c[n+](C)c23)c(C2CCCCC2)c1OC.[Cl-] | 8 µg/mL | 8 µg/mL | 1 µg/mL | 2 µg/mL
6 | COc1cc2c(ccc3c4ccc(OC)c(OC)c4c[n+](C)c23)c(C2=CCCCC2)c1OC.[Cl-] | 16 µg/mL | 32 µg/mL | 2 µg/mL | 4 µg/mL
7 | C=Cc1c(OC)c(OC)cc2c1ccc1c3ccc(OC)c(OC)c3c[n+](C)c21.[Cl-] | 8 µg/mL | 8 µg/mL | 1 µg/mL | 2 µg/mL
8 | COc1cc2c(ccc3c4ccc(OC)c(OC)c4c[n+](C)c23)c(C2CC2)c1OC.[Cl-] | 8 µg/mL | 8 µg/mL | 1 µg/mL | 2 µg/mL
9 | COc1cc2c(-c3ccc(-c4ccccc4)cc3)cc3c4ccc(OC)c(OC)c4c[n+](C)c3c2cc1OC.[Cl-] | 16 µg/mL | 16 µg/mL | 0.5 µg/mL | 0.5 µg/mL
10 | COc1cc2c(ccc3c4ccc(OC)c(OC)c4c[n+](C)c23)c(-c2ccc(-c3ccccc3)cc2)c1OC.[Cl-] | 4 µg/mL | 8 µg/mL | 0.5 µg/mL | 0.5 µg/mL
11 | COc1cc2c(-c3ccccc3)cc3c4ccc(OC)c(OC)c4c[n+](C)c3c2cc1OC.[Cl-] | 8 µg/mL | 16 µg/mL | 1 µg/mL | 2 µg/mL
12 | COc1cc2ccc3c4ccc(OC)c(OC)c4c[n+](C)c3c2cc1OC.[Cl-] | > 64 µg/mL | > 64 µg/mL | 32 µg/mL | 32 µg/mL
13 | COc1cc2c(-c3ccc(-c4ccccc4)cc3)cc3c4ccc5c(c4c[n+](C)c3c2cc1OC)OCO5.[Cl-] | 4 µg/mL | 8 µg/mL | 2 µg/mL | 2 µg/mL
14 | COc1cc2c(ccc3c4ccc5c(c4c[n+](C)c23)OCO5)c(-c2ccc(-c3ccccc3)cc2)c1OC.[Cl-] | 8 µg/mL | 8 µg/mL | 2 µg/mL | 2 µg/mL
15 | COc1cc2c(ccc3c4ccc5c(c4c[n+](C)c23)OCO5)c(-c2ccccc2)c1OC.[Cl-] | 8 µg/mL | 8 µg/mL | 1 µg/mL | 2 µg/mL
16 | COc1cc2ccc3c4ccc5c(c4c[n+](C)c3c2cc1OC)OCO5.[Cl-] | 64 µg/mL | > 64 µg/mL | 32 µg/mL | 32 µg/mL
17 | COc1cc2c(ccc3c4ccc(OC)c(OC)c4c[n+](C)c23)c(-c2ccccc2)c1OC.[Cl-] | 4 µg/mL | 4 µg/mL | 1 µg/mL | 1 µg/mL
18 | CCC[C@@H]1C[C@@H](C(=O)N[C@@H]([C@H]2O[C@H](SC)[C@H](O)[C@@H](O)[C@H]2O)[C@H](C)Cl)N(C)C1 [CLINDAMYCIN] | 2 µg/mL (≈ 4.71 µM) | > 64 µg/mL | 0.03 µg/mL (≈ 0.0706 µM) | > 64 µg/mL
19 | CC[C@H]1OC(=O)[C@H](C)[C@@H](O[C@H]2C[C@@](C)(OC)[C@@H](O)[C@H](C)O2)[C@H](C)[C@@H](O[C@@H]2O[C@H](C)C[C@H](N(C)C)[C@H]2O)[C@](C)(O)C[C@@H](C)C(=O)[C@H](C)[C@@H](O)[C@]1(C)O [ERYTHROMYCIN] | 1 µg/mL (≈ 1.36 µM) | > 64 µg/mL | 0.13 µg/mL (≈ 0.177 µM) | > 64 µg/mL
20 | Cc1onc(-c2ccccc2)c1C(=O)N[C@@H]1C(=O)N2[C@@H]1SC(C)(C)[C@@H]2C(=O)O [OXACILLIN] | 8 µg/mL (≈ 19.9 µM) | > 64 µg/mL | 0.06 µg/mL (≈ 0.149 µM) | > 64 µg/mL
21 | C[n+]1cc2c3c(ccc2c2ccc4cc5c(cc4c21)OCO5)OCO3.[Cl-] [SANGUINARIUM CHLORIDE] | 8 µg/mL | 16 µg/mL | 2 µg/mL | 2 µg/mL
22 | CN(C)[C@@H]1C(O)=C(C(N)=O)C(=O)[C@@]2(O)C(O)=C3C(=O)c4c(O)cccc4[C@@](C)(O)[C@H]3C[C@@H]12 [TETRACYCLINE] | 0.5 µg/mL (≈ 1.13 µM) | > 64 µg/mL | 0.06 µg/mL (≈ 0.135 µM) | 64 µg/mL (≈ 144 µM)
23 | CN[C@H](CC(C)C)C(=O)N[C@H]1C(=O)N[C@@H](CC(N)=O)C(=O)N[C@H]2C(=O)N[C@H]3C(=O)N[C@H](C(=O)N[C@H](C(=O)O)c4cc(O)cc(O)c4-c4cc3ccc4O)[C@H](O)c3ccc(c(Cl)c3)Oc3cc2cc(c3O[C@@H]2O[C@H](CO)[C@@H](O)[C@H](O)[C@H]2O[C@H]2C[C@](C)(N)[C@H](O)[C@H](C)O2)Oc2ccc(cc2Cl)[C@H]1O [VANCOMYCIN] | 1 µg/mL (≈ 0.69 µM) | > 64 µg/mL | – | –
